From EP1714978A1, “Peptides useful for diagnosis and therapy of tumors” (Deutsches Krebsforschungszentrum Stiftung des öffentlichen …, priority 2005, dated 2006) come the findings set out here.

Data set [1] has as its system DU-145 (prostate carcinoma cell lines). Nature of the data set: In vitro binding/uptake of ^125I-labelled FROP-1 by DU-145 cells. The conditions noted are these: ^125I-labelled FROP-1, about 1 x 10^6 cpm per well, 1 hour, RPMI 1640 without FCS and BSA. As for the experimental part: (§1) • (A) Mice: Female 6-week-old BALB/c nu/nu mice were obtained from Charles River WIGA (Sulzfeld, Germany) and housed in VentiRacks. For inoculation of the tumors in nude mice a Matrigel-matrix/cell suspension (5×10^6 cells) was injected subcutaneously into the anterior region of the mouse trunk. Tumors were grown up to a size of approximately 1.0 cm^3. All animals were cared for according to the German animal guidelines. • (B) Peptide synthesis and labeling: The FROP-1-Peptide (EDYELMDLLAYL) was obtained by solid-phase peptide synthesis using Fmoc-chemistry. The radiolabeling was achieved by iodination using the chloramine-T method (33). […] The solution was centrifuged 5 min at 13,000 rpm and the cleared lysate was analyzed by HPLC. • (D) In vitro binding assay: 300,000 cells were seeded into 6-well plates and cultivated for 24 hours. […] Radioactivity was determined with a gamma counter and calculated as percent applied dose per 10^6 cells. […] The organs were removed, weighed and the radioactivity was determined using an automated NaI(Tl) well counter (CobraII, Canberra Packard, Meriden, USA). The percentage of injected dose per gram of tissue was calculated.
(§2) 2 x 10^5 cells of various tumor cell lines were seeded into 6-well plates. […] The radioactivity of lysed cells was determined with a gamma counter. […]

Data set [2] deals with HeLa cells (cervix carcinoma cell line). In words: In vitro binding/uptake of ^125I-labelled FROP-1 by HeLa cells. As to conditions: ^125I-labelled FROP-1, about 1 x 10^6 cpm per well, 1 hour, RPMI 1640 without FCS and BSA. As to the method:
as §1, §2

The next data set deals with various tumor cell lines. Nature of the data set: Competition of ^125I-labelled FROP-1 uptake by unlabelled FROP-1, various tumor cell lines. The data set is classed as binding. As to conditions: in the presence of 10^-4 unlabelled FROP-1 as a competitor, 1 hour. As to the method:
as §1, §2

Data set [3] relates to MCF-7 cells (mamma carcinoma cell line). In words: In vitro binding/uptake of ^125I-labelled FROP-1 by MCF-7 cells. The conditions noted are these: ^125I-labelled FROP-1, about 1 x 10^6 cpm per well, 1 hour, RPMI 1640 without FCS and BSA. As to the method: as §1, §2
The next data set relates to FRO82-2 tumor. In words: Organ distribution in tumor-bearing nude mice. The data set is classed as in vivo, Balb/c nu/nu mice. The conditions noted are these: summary statement; ^131I-FROP-1 i.v., values only in Figure 6. As for the experimental part:
as §1, with “(33). The labeled peptide was purified by HPLC on a LiChrosorb RP-select B 5 µm, 250 ×x 4 mm column (Merck, Darmstadt, Germany) using TRIS/phosphate and methanol as eluents.” for “(33).”, “calculated. […]” for “calculated.”

Data set [4] relates to PC-3 (prostate carcinoma cell lines). Nature of the data set: In vitro binding/uptake of ^125I-labelled FROP-1 by PC-3 cells. As to conditions: ^125I-labelled FROP-1, about 1 x 10^6 cpm per well, 1 hour, RPMI 1640 without FCS and BSA. As to the method: as §1, §2
In data set [5] the test system is FRO82-2 cells (follicular thyroid cancer cell line). Nature of the data set: In vitro binding/uptake of ^125I-labelled FROP-1 by FRO82-2 cells. Details: species or system human. As to conditions: ^125I-labelled FROP-1, about 1 x 10^6 cpm per well, 1 hour, RPMI 1640 without FCS and BSA. As to the method: as §1, §2

Consider “FROP-1: novel 12 amino acid peptide from phage display, aa sequence EDYELMDLLAYL”, for which, in data set [1], the “binding of FROP-1 to DU-145” value is reported as “efficient binding”. For the same substance, in data set [2], the “binding of FROP-1 to HeLa cells” value was “efficient binding”. The “binding can be competed” value in the data set on various tumor cell lines was 95%. For the same substance, the “binding of FROP-1 to MCF-7 cells” value in data set [3] is reported as “efficient binding”. The “accumulation in tumors in vivo” value with FRO82-2 tumor is reported as “accumulates in vivo at/in tumors”. Moreover, the “binding of FROP-1 to PC-3” value in data set [4] is “efficient binding”. In addition, in data set [5], the “binding of FROP-1 to FRO82-2 cells” value is on record as “efficient binding”.
